# Source: patent US20180016548A1, “ACELLULAR SCAFFOLDS FOR MATURATION OF IPSC-HEPATOCYTES” (Northwestern University, priority 2016, published 2018)
# Tested on: CYP1A2
# Assay: CYP1A2 enzyme activity in iPSC-hepatocytes (Luc-ME luminescence)
# Assay type: cell-based, human
# Details: in comparison to primary hepatocytes, 5 μM inducer for 48 h
# Procedure: 100 μl of this luciferin medium was added to a 96-well white opaque plate with 100 μl luciferin detection reagent, and the luminescence signal was measured on a Cytation 3 Cell Imaging Multi-Mode Reader (BioTek Inc. Winooski, Vt.). After determining the activity, the amount of cells in each scaffold or sandwich culture was analyzed with Quant-iT™ Pico Green kit following the protocols described above.
smiles,measurement,value
Cc1ccc2cc3c(ccc4ccccc43)c3c2c1CC3 [3-methylcholanthrene],induction of CYP1A2 activity,modest
